Source: patent US11358969B2, “Indole AHR inhibitors and uses thereof” (Ikena Oncology, Inc., priority 2017, dated 2022)

Legend:
[1] = system: B16-IDO murine melanoma; test: Efficacy study in the mouse melanoma model B16-IDO (Example 1H); format: in vivo; conditions: B16-IDO in C57BL/6 mice, FIG. 4
Experimental: B16-IDO is a murine melanoma carcinoma cell line that has been engineered to overexpress IDO1 (Holmgaard, 2015 Cell Reports). B16-IDO cells were cultured in DMEM supplemented with 10% FBS. 2×10^5 B16-IDO cells in 50 μl PBS were implanted intradermally in 6-8 week old female, C57BL/6 mice. Dosing for the efficacy study starts 7 days post implant: AHR antagonist I-70 was dosed orally, every day (QD) at or 10 mg/kg for 2 weeks. Anti-PD-1 (BioXcell RMP1-14) was administered every 3rd day, intraperitoneally (IP) at 250 μg/mouse for five total doses. Tumors were monitored by caliper measurement every 2-3 days and body weight measured three times per week.

[2] = system: CD3/CD28 activated human T cells; test: T-Cell Study with I-70 (Example 1F); format: cell-based; conditions: human T cells activated with CD3/CD28 tetramer, 24 hours
Experimental: Human T cells were isolated by CD3 negative selection after isolation of PBMCs from blood of human donors via ficoll density gradient centrifugation. One million T cells were activated with 25 uL of CD3/CD28 tetramer (Stemcell) in the presence or absence of I-70 for 24 hours, after which media was removed and stored at −80 C for later cytokine analysis. Cells were then washed 2× with PBS, before isolating RNA according to the manufacturer's instructions for the RNAeasy mini kit (Qiagen).
RNA was converted to cDNA using VILO-IV RT mastermix (Thermofisher), and q-RT-PCR was performed to determine levels of IL-22 (Hs01574154_m1), Cyp1a1 (Hs01054797_g1), and GAPDH (Hs00266705_g1). Data was analyzed using the ddCT method whereby each sample is first normalized to GAPDH housekeeping gene before being normalized to control treatment.
Cytokine levels were determined utilizing the mesoscale discovery (MSD) platform (K15067L-2) and MSD analysis software according to the manufacturer's instructions. IL-22 protein levels are decreased and pro-inflammatory IL-2 protein levels are increased by treatment with I-70, as shown in FIG. 2.

cyp1a1 RNA expression levels ([2]; q-RT-PCR, FIG. 1): inhibited
Structure (SMILES): Cc1cnn2c(NCCc3c[nH]c4ccccc34)cc(-c3cncc(F)c3)nc12 [I-70, 5-(5-Fluoro-3-pyridyl)-N-[2-(1H-indol-3-yl)ethyl]-3-methyl-pyrazolo[1,5-a]pyrimidin-7-amine]
Tumor growth ([1]; I-70 alone, orally QD 10 mg/kg for 2 weeks): inhibited | Tumor growth ([1]; I-70 in combination with anti-PD-1 (IP 250 μg/mouse every 3rd day)): inhibited | IL-22 protein levels ([2]; MSD platform, FIG. 2): decreased | pro-inflammatory IL-2 protein levels ([2]; MSD platform, FIG. 2): increased | IL22 RNA expression levels ([2]; q-RT-PCR, FIG. 1): inhibited
